Measured values taken from publication PMC9827864, “In Situ Inhibitor Synthesis and Screening by Fluorescence Polarization: An Efficient Approach for Accelerating Drug Discovery” (Angewandte Chemie (International Ed. in English), 2022).
“Also recorded” adds a separate entry of the source.

Columns and labels:
ICR mice = experiment: Subacute oral toxicity assay; assay type: in vivo
Experimental: 6. Subacute and acute oral toxicity assay
The experimental mice (SPF, ICR, male and female) were obtained from Nantong University (permit number: SCXK (Su) 2019-0001). All animal related experiments were conducted under China Pharmaceutical University guidelines (certification of using the housing facility for laboratory animals: SYXK (Su) 2018-0019) IACUC approved protocols in compliance with the guide for the care and use of laboratory animals (number: 202013705).
6.1 Subacute oral toxicity assay
ICR mice were divided into 8 groups (n = 6), including 15 mg·kg-1, 50 mg·kg-1, 100 mg·kg-1 and vehicle groups for males and females, respectively. […] The body weight of the mice was recorded. […]
Experimental mice were treated with 17 through oral administration once. Body weight and the heart, kidney, liver, spleen, and lung weight were recorded. Blood was collected, and the samples were analyzed by blood biochemistry assays (CRE, AST, ALT, BUN).
A solution of aldehyde B82 (60 μL, 0.5 M, DMSO-d6), 4-methoxyaniline (2 μL, 6.0 M, DMSO -d6), mesitylene (100 μL, 0.1 M, DMSO - d6), and acylhydrazide A3 (100 μL, 0.1 M, DMSO -d6) was added to a mixture of DMSO -d6 (188 μL) and FP buffer D 2O (50 μL), in a 5 mm NMR tube; following incubation at room temperature, the sample was evaluated by a Bruker AV-400 instrument. […]

[1] = tested on: reticulocytes in C57BL/6J mice; experiment: In vivo reticulocytes increased assay; parameters: species or system mouse
Experimental: A structure of PHD2 in complex with Fe and a 2OG competing inhibitor (PDB ID: 4KBZ) was obtained from PDB website. The structure files of protein and compounds for docking were prepared using the Discovery Studio (DS) 2020 software. A water molecule HOH624, conserved in the active binding site of PHD2, was retained during the docking. Residues of PHD2 around the native ligand (radius = 10 Å) were defined as the binding sites for docking. Subsequently, the ligand was removed; the Fe (II) was retained during the docking. Compounds were docked into the binding sites using GOLD 5.1. Docking procedures were performed using the default setting with 100 genetic algorithm (GA) runs of ligands. […]
17 was preincubated with microsomes from different species (0.5 mg/mL) at 1 μM for 5 min at 37 °C in 100 mM PBS buffer (pH 7.4). […] The samples were centrifuged at 5000 rpm f or 10 min; the supernatants were then analyzed by HPLC. […]
Representative compounds and Roxadustat were formulated in normal saline solution. […] Subsequently, these samples were analyzed for reticulocytes in the center for new drug safety evaluation and research of China Pharmaceutical University (ADVIA 2120 hematology system). […]
Plasma EPO was evaluated using the erythropoietin quantikine ELISA kit for mice (MEP00B). […]
in normal saline solution. […] Plasma was collected by centrifugation at 3000 rpm, these plasmas were detected by E PO […]

## O=C(N/N=C/c1cccc(O)c1Cl)c1cnc(-c2cccnn2)[nH]c1=O [compound 17]
ICR mice; 100 mg kg−1 oral, alternate days for two weeks
  H&E staining of major organs: normal architecture comparable to the vehicle
ICR mice; oral, every other day for 14 days, 10 or 15, 50 and 100 mg kg−1
  subacute oral toxicity findings (behavior, body weight, organ/body weight ratio, BUN, ALT, AST, CRE): no obvious abnormality; also recorded: did not exhibit any treatment-associated adverse effects
[1]; C57BL/6J male mice, 20 mg kg−1 po, three administrations, 72 h
  reticulocyte induction: superior with respect to inducing reticulocytes compared to the other tested ISISS compounds
[1]; C57BL/6J mice, 5, 10 and 20 mg kg−1 po
  changes in reticulocytes, multiple doses: dose‐dependent increase in reticulocytes
